For 21 compounds, T/C results are on record in PubChem BioAssay AID330 (DTP/NCI, 2004).

The test system of this test is P388 leukemia ip, CD2F1 mice, survival T/C. Put plainly: NCI In Vivo Anticancer Drug Screen. Data for tumor model P388 Leukemia (intraperitoneal) in CD2F1 (CDF1) mice. The note with it: endpoint: median survival time, higher = longer survival. In outline: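 Mice carrying the transplanted tumor received test compound or vehicle. Survival was recorded in each group, and the value is the treated-group measurement divided by that of the vehicle-treated control group.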

Where [1] appears, read: dose: 25.0 mg/kg/injection, schedule: Q01DX009 (ip), vehicle: saline with Tween-80.
The mark [2] stands for this setting: dose: 50.0 mg/kg/injection, schedule: Q01DX009 (ip), vehicle: saline with Tween-80.
The mark [3] stands for this setting: dose: 100.0 mg/kg/injection, schedule: Q01DX009 (ip), vehicle: saline with Tween-80.
Where [4] appears, read: dose: 200.0 mg/kg/injection, schedule: Q01DX009 (ip), vehicle: saline with Tween-80.
Setting [5] is: dose: 25.0 mg/kg/injection, schedule: Q01DX009 (ip), vehicle: saline.
Where [6] appears, read: dose: 100.0 mg/kg/injection, schedule: Q01DX009 (ip), vehicle: saline.
[7] abbreviates: dose: 50.0 mg/kg/injection, schedule: Q01DX005 (ip), vehicle: saline with Tween-80.
The mark [8] stands for this setting: dose: 200.0 mg/kg/injection, schedule: Q01DX005 (ip), vehicle: saline with Tween-80.
The mark [9] stands for this setting: dose: 100.0 mg/kg/injection, schedule: Q01DX005 (ip), vehicle: saline with Tween-80.
The mark [10] stands for this setting: dose: 50.0 mg/kg/injection, schedule: Q01DX009 (ip), vehicle: Klucel (hydroxypropylcellulose) (HPC).

Where “and” joins values, the source holds several entries; their conditions need not be identical. Equal values may be shown once. Toxic doses and inconclusive results are not listed.

On to `CCOC(=O)C1=C(C)NC(C)=C(C(=O)OCC)C1c1cccnc1`, for which the T/C by setting is: (dose: 25.0 mg/kg/injection, schedule: Q01DX009 (ip), vehicle: distilled water + Tween-80) 101 % of control; (dose: 50.0 mg/kg/injection, schedule: Q01DX009 (ip), vehicle: distilled water + Tween-80) 103 % of control; (dose: 100.0 mg/kg/injection, schedule: Q01DX009 (ip), vehicle: distilled water + Tween-80) 94 % of control; (dose: 200.0 mg/kg/injection, schedule: Q01DX009 (ip), vehicle: distilled water + Tween-80) 93 % of control; (dose: 400.0 mg/kg/injection, schedule: Q01DX009 (ip), vehicle: distilled water + Tween-80) 88 % of control.
Regarding `COc1ccc(C(=O)c2no[n+]([O-])c2C(=O)c2ccc(OC)cc2)cc1`, the T/C was 108 % of control under setting [1]; 104 % of control and 107 % of control under setting [2]; 100 % of control and 106 % of control under setting [3]; 115 % of control under setting [4]; 123 % of control (dose: 400.0 mg/kg/injection, schedule: Q01DX009 (ip), vehicle: saline with Tween-80).
With `Cc1c(-c2ccccc2)ccnc1/C=N/NC(N)=S`, the T/C runs as follows: (dose: 6.25 mg/kg/injection, schedule: Q01DX009 (ip), vehicle: saline) 101 % of control; (dose: 12.5 mg/kg/injection, schedule: Q01DX009 (ip), vehicle: saline) 120 % of control; under setting [5], 120 % of control; under setting [6], 103 % of control.
Regarding `COC(=O)C(NC(N)=O)OC` (stereo not drawn), the T/C by setting is: under setting [5], 105 % of control; (dose: 50.0 mg/kg/injection, schedule: Q01DX009 (ip), vehicle: saline) 100 % of control; under setting [6], 103 % of control.
`Cn1c2c(c(=O)n(C)c1=O)Cc1cc(CC(=O)O)ccc1N2`: the T/C (dose: 100.0 mg/kg/injection, schedule: Q01DX001 (ip), vehicle: saline with Tween-80) was 99 % of control; the T/C (dose: 200.0 mg/kg/injection, schedule: Q01DX001 (ip), vehicle: saline with Tween-80) is 97 % of control; the T/C (dose: 400.0 mg/kg/injection, schedule: Q01DX001 (ip), vehicle: saline with Tween-80) is 96 % of control.
On to `COc1ccc(C(=O)C2C(C(=O)c3ccccc3)C23C(=O)N(C)c2ccccc23)cc1` (stereo not drawn), for which the T/C is 101 % of control (dose: 25.0 mg/kg/injection, schedule: Q04DX002 (ip), vehicle: saline with Tween-80); 100 % of control (dose: 50.0 mg/kg/injection, schedule: Q04DX002 (ip), vehicle: saline with Tween-80); 98 % of control (dose: 100.0 mg/kg/injection, schedule: Q04DX002 (ip), vehicle: saline with Tween-80).
Regarding `CC(C)COC(CNC(=O)c1ccccc1)C(Cl)(Cl)Cl` (stereo not drawn), the T/C by setting is: under setting [2], 100 % of control; under setting [3], 100 % of control; under setting [4], 110 % of control.
For the compound `C[C@]12CC[C@H](O)C[C@@H]1CC[C@@H]1[C@@H]2CC[C@]2(C)c3nc4ccccc4c(C(=O)O)c3C[C@@H]12`, the T/C reads like this: (dose: 12.5 mg/kg/injection, schedule: Q01DX005 (ip), vehicle: saline with Tween-80) 101 % of control; (dose: 25.0 mg/kg/injection, schedule: Q01DX005 (ip), vehicle: saline with Tween-80) 100 % of control; under setting [7], 86 % of control and 94 % of control; under setting [8], 93 % of control.
For the compound `c1ccc2c(Nc3ccc(C4=NCCN4)cc3)nnc(Nc3ccc(C4=NCCN4)cc3)c2c1`, the T/C is, setting by setting: (dose: 3.13 mg/kg/injection, schedule: Q04DX003 (ip), vehicle: saline with Tween-80) 100 % of control; (dose: 6.25 mg/kg/injection, schedule: Q04DX003 (ip), vehicle: saline with Tween-80) 110 % of control; (dose: 12.5 mg/kg/injection, schedule: Q04DX003 (ip), vehicle: saline with Tween-80) 110 % of control; under setting [1], 195 % of control; under setting [2], 210 % of control; under setting [3], 250 % of control. For the same compound, where the note is “dose: 100.0 mg/kg/injection, schedule: Q04DX003 (ip), vehicle: saline with Tween-80”, the T/C was 154 % of control and 168 % of control.
As for `O=C(O)c1c[nH]c2cc(OCc3ccc4ccccc4c3)ccc2c1=O`, the T/C runs as follows: (dose: 100.0 mg/kg/injection, schedule: Q04DX003 (ip), vehicle: saline) 90 % of control; (dose: 200.0 mg/kg/injection, schedule: Q04DX003 (ip), vehicle: saline) 97 % of control; (dose: 400.0 mg/kg/injection, schedule: Q04DX003 (ip), vehicle: saline) 87 % of control.
Regarding `COc1ccc(-n2cnc3c(cnn3CN3CCCCC3)c2=O)cc1`, the T/C (dose: 60.0 mg/kg/injection, schedule: Q01DX005 (ip), vehicle: Klucel (hydroxypropylcellulose) (HPC)) was 104 % of control and the T/C (dose: 120.0 mg/kg/injection, schedule: Q01DX005 (ip), vehicle: Klucel (hydroxypropylcellulose) (HPC)) was 103 % of control.
Regarding `CCOC(=O)C1=C(CC)NN=C(C)C1`, the T/C under setting [7] is 105 % of control, the T/C under setting [9] was 103 % of control and the T/C under setting [8] was 100 % of control.
In the case of `CCOC(=O)CCCCCCCCNC(=S)N1c2c(nc(N)[nH]c2=O)NCC1CNc1ccc(C(=O)NC(CCC(=O)O)C(=O)O)cc1` (stereo not drawn), the T/C under setting [10] was 90 % of control; the T/C (dose: 100.0 mg/kg/injection, schedule: Q01DX009 (ip), vehicle: Klucel (hydroxypropylcellulose) (HPC)) is 110 % of control; the T/C (dose: 200.0 mg/kg/injection, schedule: Q01DX009 (ip), vehicle: Klucel (hydroxypropylcellulose) (HPC)) is 99 % of control.
As for `NC(Cc1ccc(O)cc1)C(=O)N/N=C/c1cccc2ccccc12` (stereo not drawn), the T/C runs as follows: under setting [7], 92 % of control; under setting [9], 90 % of control; under setting [8], 89 % of control.
For the compound `CCCCOS(=O)(=O)c1ccc([N+](C)(C)C)cc1`, the T/C runs as follows: (dose: 12.5 mg/kg/injection, schedule: Q01DX009 (ip), vehicle: Klucel (hydroxypropylcellulose) (HPC)) 100 % of control; (dose: 25.0 mg/kg/injection, schedule: Q01DX009 (ip), vehicle: Klucel (hydroxypropylcellulose) (HPC)) 102 % of control; under setting [10], 104 % of control.
In the case of `O=C1C=C2C=CC(O)C(O)C2O1` (stereo not drawn), the T/C (dose: 2.5 mg/kg/injection, schedule: Q01DX009 (ip), vehicle: Klucel (hydroxypropylcellulose) (HPC)) is 102 % of control; the T/C (dose: 5.0 mg/kg/injection, schedule: Q01DX009 (ip), vehicle: Klucel (hydroxypropylcellulose) (HPC)) was 98 % of control; the T/C (dose: 10.0 mg/kg/injection, schedule: Q01DX009 (ip), vehicle: Klucel (hydroxypropylcellulose) (HPC)) was 100 % of control; the T/C (dose: 20.0 mg/kg/injection, schedule: Q01DX009 (ip), vehicle: Klucel (hydroxypropylcellulose) (HPC)) is 94 % of control.
`CCC#CCN(CCCC)CCCC`: the T/C runs as follows: under setting [7], 106 % of control; under setting [9], 103 % of control.
Turning to `O/N=c1/ccn(O)c2ccccc12`, the T/C runs as follows: (dose: 0.78 mg/kg/injection, schedule: Q01DX009 (ip), vehicle: saline) 161 % of control; (dose: 1.56 mg/kg/injection, schedule: Q01DX009 (ip), vehicle: saline) 171 % of control; (dose: 3.12 mg/kg/injection, schedule: Q01DX009 (ip), vehicle: saline) 204 % of control.
As for `CCC12OC(COc3ccccc3)CN1CCN2c1ccccc1` (stereo not drawn), the T/C was 97 % of control (dose: 60.0 mg/kg/injection, schedule: Q01DX005 (ip), vehicle: saline with Tween-80) and 98 % of control (dose: 120.0 mg/kg/injection, schedule: Q01DX005 (ip), vehicle: saline with Tween-80).
With `C=C(OC1C=C(C(=O)O)C2OC2C1O)C(=O)O` (stereo not drawn), the T/C by setting is: (dose: 2.5 mg/kg/injection, schedule: Q01DX005 (ip), vehicle: saline) 100 % of control; (dose: 5.0 mg/kg/injection, schedule: Q01DX005 (ip), vehicle: saline) 100 % of control; (dose: 10.0 mg/kg/injection, schedule: Q01DX005 (ip), vehicle: saline) 106 % of control; (dose: 20.0 mg/kg/injection, schedule: Q01DX005 (ip), vehicle: saline) 102 % of control; (dose: 40.0 mg/kg/injection, schedule: Q01DX005 (ip), vehicle: saline) 109 % of control.
On to `COc1ccc(CSC(=S)Nc2cc(C)c(C)cc2Br)cc1`, for which the T/C is, setting by setting: (dose: 50.0 mg/kg/injection, schedule: Q01DX009 (ip), vehicle: suspension in saline) 100 % of control; (dose: 100.0 mg/kg/injection, schedule: Q01DX009 (ip), vehicle: suspension in saline) 97 % of control; (dose: 200.0 mg/kg/injection, schedule: Q01DX009 (ip), vehicle: suspension in saline) 93 % of control.
